In US20250326725A1, “PI4-Kinase Inhibitors and Methods of Using the Same” (The Board of Trustees of the Leland Stanford Junior …, priority 2019, published 2025):

What was measured:
[1] = test system: Human HPV (Papillomaviridae); assay: Human HPV antiviral assay (EC50); assay type: cell-based, human papilloma virus; details: Human papillomavirus, read-out: Human HPV (Papillomaviridae) EC50
EV-71 virus = assay: Survival of AG129 mice challenged with EV-71; assay type: in vivo; details: EV-71 10^6.5 CCID50/mouse i.p., treated b.i.d. for five days per os starting four hours post-infection
Experimental: FIG. 4 illustrates the survival of four-week-old AG129 mice challenged with EV-71 virus and treated with exemplary Compound B. Groups of eight AG129 nice were challenged with EV-71 at 10^6.5 CCID50/mouse via the i.p. route. Mice were treated b.i.d. for five days per os with doses of Compound B as shown, starting four hours post-infection. Placebo-treated mice received a vehicle control on the same schedule. Mice treated with IVIg, as a positive control, received a single administration of 100 mg/kg via the i.p. route four hours post-infection. […] (*P<0.05, **P<0.01).

[2] = test system: H2122 human orthotopic lung tumors; assay: H2122 human orthotopic lung tumors in nu/nu mice; assay type: in vivo; details: 20 or 40 mg/kg plus 20 mg/kg ritonavir, subcutaneously twice daily for three weeks
Experimental: Mice received standard care and were euthanized according to the standards set forth by the Institutional Animal Care and Use Committee. To generate orthotopic lung tumors using human lung adenocarcinoma cell lines, nu/nu mice (n=10 mice per cohort) were subjected to intrathoracic injection with 10^6 human tumor cells, necropsied after a week or more of treatment, and primary tumor size and the number of metastases on the contralateral lung surface measured. […] Drugs were administered subcutaneously twice daily for three weeks. On the last day of treatment, mice were subjected to micro-computed tomography to measure primary tumor size. The following day, mice were necropsied to measure primary tumor size, count metastases to the contralateral lung, and obtain lung tissues for analysis. […] Drugs were administered intraperitoneally twice daily for 8 days. On the last day of treatment, mice were subjected to micro-computed tomography to measure primary tumor size. The following day, mice were necropsied to measure primary tumor size, count metastases to the contralateral lung, and obtain lung tissues.

lung cancer cell lines [3] = assay: PI4P levels in lung cancer cell lines; assay type: cell-based, human; details: panel of lung cancer cell lines
Experimental: (§1) Human lung cancer cells (A549, H1299, H460, H23, H2122, and H3122) were cultured in RPMI 1640 containing 10% FBS. Cells were maintained at 37° C. in an incubator with a humidified atmosphere containing 5% CO2.
(§2) To assess the anti-cancer activity of exemplary PI4K antagonists, a panel of lung cancer cell lines annotated for the presence or absence of PI4K amplifications were treated with PI4K inhibitors (IN-9, TN-10, or compound B) that have greater than 1000-fold selectivity […] PI4KIIIβ over class I and class III PI3K family members. […] IC50 values were even lower with the presence of PI4K amplifications.
(§3) PI4KIIIβ is a target in human cancers, including lung adenocarcinoma. (FIG. 1A). PI4P concentrations in H2122 cells (dots) treated in triplicate (dots) with Compound B or vehicle dimethyl sulfoxide (DMS). (FIG. 1B) Relative densities of PI4-kinase-amplified (red) and -diploid (black) human lung adenocarcinoma cell lines determined by WST-1 assays after 5 days of Compound B treatment. Results expressed relative to the lowest dose, which was set at 100%. (FIG. 1B, right panel) Half maximal inhibitory (IC50) concentrations of compound B determined from FIG. 1B, left panel. (FIG. 1C) Migrated and invaded 1-23 human lung adenocarcinoma cells in Transwell chambers were photographed (images) and counted (bar graphs) after treatment with compound B. Results expressed relative to DMSO-treated cells, which were set at 1.0. (FIG. 1C, right panel). Colonies formed by H2122 human lung cancer cells in soft agarose (FIG. 1D) and on plastic (FIG. 1E) were photographed (images) and counted (bar graphs) after 7 days of treatment with the indicated doses of compound B or vehicle DMSO (0 M). Results expressed relative to DMSO control, which were set at 1.0. PI4-kinase inhibition leads to selective cytotoxicity for cancer cells (FIG. 1F).

PI4KIIIbeta = target: T1, PI4KIIIbeta (Bos taurus, UniProt O02810); assay: PI-kinase assay, PI4KIIIbeta (Table 4); assay type: biochemical, bovine
T1 construct: made in house; host or cells: COS-7 cells, transient transfection, anti-HA immunoprecipitate on protein G Sepharose beads
T1 sequence (O02810 whole entry): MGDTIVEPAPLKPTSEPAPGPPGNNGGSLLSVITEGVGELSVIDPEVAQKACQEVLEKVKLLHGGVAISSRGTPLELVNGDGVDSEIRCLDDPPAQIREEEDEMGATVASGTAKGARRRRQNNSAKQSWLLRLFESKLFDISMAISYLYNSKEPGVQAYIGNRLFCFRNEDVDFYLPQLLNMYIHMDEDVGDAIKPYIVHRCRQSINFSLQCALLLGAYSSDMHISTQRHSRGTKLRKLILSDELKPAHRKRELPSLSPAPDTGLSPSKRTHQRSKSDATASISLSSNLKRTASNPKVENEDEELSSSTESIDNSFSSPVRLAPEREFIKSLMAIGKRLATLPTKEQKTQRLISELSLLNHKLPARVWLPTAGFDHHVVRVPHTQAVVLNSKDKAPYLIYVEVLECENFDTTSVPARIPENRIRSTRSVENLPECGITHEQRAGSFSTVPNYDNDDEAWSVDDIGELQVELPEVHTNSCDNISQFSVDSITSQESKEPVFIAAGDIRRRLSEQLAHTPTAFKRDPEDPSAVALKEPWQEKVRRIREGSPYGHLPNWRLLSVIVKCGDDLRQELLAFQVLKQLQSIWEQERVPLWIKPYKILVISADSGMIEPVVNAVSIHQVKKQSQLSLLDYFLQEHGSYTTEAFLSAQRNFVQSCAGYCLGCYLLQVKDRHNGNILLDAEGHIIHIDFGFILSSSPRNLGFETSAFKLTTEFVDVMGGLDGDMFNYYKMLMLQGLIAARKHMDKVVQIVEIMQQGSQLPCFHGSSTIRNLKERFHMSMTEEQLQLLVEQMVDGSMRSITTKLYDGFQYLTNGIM
Experimental: (§4) PI-kinase assay: Compounds are tested in C.1.1. PT kinase assays as described by Shokat et al., “A membrane capture assay for lipid kinase activity.” Nat. Protoc. 2007; 2(10):2459-66.
(§5) General methods of materials: In the assays described here, p110α-p85 complex and p110γ were acquired from Millipore. Assays were performed with La-phosphatidylinositol (Avanti) as described in Knight et al. Nat Protoc. 2007; 2 (10):2459-66. Inhibitor series were prepared 10% DMSO as 5× stocks for the assay. Assays of HsVps34 were performed as described in Knight et al, except that the final assay buffer composition used was changed to 20 mM HEPES 7.5, 100 mM NaCl, 3 mM MgCl, 1 mg/mL PI and 44 nM hvps34 was used in the assay. […] COS-7 cells were cultured in 10 cm dishes and transfected at 70% confluence with 10 μg of plasmid DNA (HA-tagged bovine PI4KIIIβ. HA-tagged human PI4KIIIα) using Lipofectamine 2000 and 5 ml Opti-MEM following the manufacturer's instructions. After 5 hours the transfection medium was replaced with 10 ml complete DMEM. 36 hrs post transfection, cells were washed once with 5 ml PBS (pH 7.4) and lysed in 1 ml of lysis buffer (1) on ice. Lysates were collected by scraping and after 15 min they were centrifuged at 13.000 rpm for 10 min. To the lysates was added 200 gi of protein G Sepharose 4 fast flow beads that were prewashed with PBS and lysis buffer and 2 sg of anti-HA antibody. The tubes were then incubated overnight at 4 degrees C. in a tube rotator. The Sepharose beads in the lysate were washed twice with 150 mM NaCl in RIPA buffer, twice with RIPA buffer and once with kinase buffer (50 mM Tris/HCl, pH 7.5, 20 mM MgCl2, 1 mM EFTA, 1 mM PtdIns, 0.4% Triton X-100, 0.5 mg/mL BSA) and finally the beads were resuspended in 200 μL kinase buffer. Kinase reactions were run in a mixture of 45 μL of PI buffer (1 mM P1 in kinase buffer), 10 μL of immunoprecipitated beads, 2 µL of inhibitors (dissolved and diluted in DMSO) or DMSO and 5 μL of [γ-^32P]-ATP (1 mM and 2 μCi/tube). The immunoprecipitates in PI buffer were pre-incubated with the drugs for 20 min prior the initiation of kinase reaction by adding ATP and the reactions were carried out for 30 min in 15 ml polyproplyene tubes. Reactions were terminated by addition of 3 ml of CHCl3:CH3OH:HCl (200:100:0.75) followed by 0.6 ml of 0.61N HCl to induce phase separation. The mixtures were vortexed, centrifuged at 2000 rpm for 2 min and the upper phase was discarded. To the lower phase was added 1.5 ml of CHCl3:CH3OH:0.6N HCl (3:48:47) and the mixture vortexed and centrifuged at 2000 rpm for 2 ruin. The lower phase was then transferred to counting vials and evaporated. Samples were counted in a scintillation beta counter after adding 5 ml of Instafluor (Perkin-Elmer).
(§6) Selected compounds of Tables 1-3 were prepared and tested for inhibition activity in a variety of kinase assays.

lung cancer cell lines [4] = assay: Migration and invasion in Boyden chambers; assay type: cell-based, human; details: panel of lung cancer cell lines
Experimental: as §1, §2, §3

lung cancer cell lines [5] = assay: Cell proliferation in monolayer culture (WST-1); assay type: cell-based, human; details: panel of lung cancer cell lines
Experimental: as §1, §2, §3

[6] = test system: BK virus (Polyomaviridae); assay: BK virus antiviral assay (EC50); assay type: cell-based; details: Betapolyomavirus hominis
lung cancer cell lines [7] = assay: Colony formation in soft agar and on plastic; assay type: cell-based, human; details: panel of lung cancer cell lines
Experimental: as §1, §2, §3

[8] = Cell toxicity (CC50) in HPV assay
PI4KIIIalpha = target: T2, PI4KIIIalpha (Homo sapiens, UniProt P42356); assay: PI-kinase assay, PI4KIIIalpha (Table 4); assay type: biochemical
T2 construct: made in house; host or cells: COS-7 cells, transient transfection, anti-HA immunoprecipitate on protein G Sepharose beads
T2 sequence (P42356 whole entry): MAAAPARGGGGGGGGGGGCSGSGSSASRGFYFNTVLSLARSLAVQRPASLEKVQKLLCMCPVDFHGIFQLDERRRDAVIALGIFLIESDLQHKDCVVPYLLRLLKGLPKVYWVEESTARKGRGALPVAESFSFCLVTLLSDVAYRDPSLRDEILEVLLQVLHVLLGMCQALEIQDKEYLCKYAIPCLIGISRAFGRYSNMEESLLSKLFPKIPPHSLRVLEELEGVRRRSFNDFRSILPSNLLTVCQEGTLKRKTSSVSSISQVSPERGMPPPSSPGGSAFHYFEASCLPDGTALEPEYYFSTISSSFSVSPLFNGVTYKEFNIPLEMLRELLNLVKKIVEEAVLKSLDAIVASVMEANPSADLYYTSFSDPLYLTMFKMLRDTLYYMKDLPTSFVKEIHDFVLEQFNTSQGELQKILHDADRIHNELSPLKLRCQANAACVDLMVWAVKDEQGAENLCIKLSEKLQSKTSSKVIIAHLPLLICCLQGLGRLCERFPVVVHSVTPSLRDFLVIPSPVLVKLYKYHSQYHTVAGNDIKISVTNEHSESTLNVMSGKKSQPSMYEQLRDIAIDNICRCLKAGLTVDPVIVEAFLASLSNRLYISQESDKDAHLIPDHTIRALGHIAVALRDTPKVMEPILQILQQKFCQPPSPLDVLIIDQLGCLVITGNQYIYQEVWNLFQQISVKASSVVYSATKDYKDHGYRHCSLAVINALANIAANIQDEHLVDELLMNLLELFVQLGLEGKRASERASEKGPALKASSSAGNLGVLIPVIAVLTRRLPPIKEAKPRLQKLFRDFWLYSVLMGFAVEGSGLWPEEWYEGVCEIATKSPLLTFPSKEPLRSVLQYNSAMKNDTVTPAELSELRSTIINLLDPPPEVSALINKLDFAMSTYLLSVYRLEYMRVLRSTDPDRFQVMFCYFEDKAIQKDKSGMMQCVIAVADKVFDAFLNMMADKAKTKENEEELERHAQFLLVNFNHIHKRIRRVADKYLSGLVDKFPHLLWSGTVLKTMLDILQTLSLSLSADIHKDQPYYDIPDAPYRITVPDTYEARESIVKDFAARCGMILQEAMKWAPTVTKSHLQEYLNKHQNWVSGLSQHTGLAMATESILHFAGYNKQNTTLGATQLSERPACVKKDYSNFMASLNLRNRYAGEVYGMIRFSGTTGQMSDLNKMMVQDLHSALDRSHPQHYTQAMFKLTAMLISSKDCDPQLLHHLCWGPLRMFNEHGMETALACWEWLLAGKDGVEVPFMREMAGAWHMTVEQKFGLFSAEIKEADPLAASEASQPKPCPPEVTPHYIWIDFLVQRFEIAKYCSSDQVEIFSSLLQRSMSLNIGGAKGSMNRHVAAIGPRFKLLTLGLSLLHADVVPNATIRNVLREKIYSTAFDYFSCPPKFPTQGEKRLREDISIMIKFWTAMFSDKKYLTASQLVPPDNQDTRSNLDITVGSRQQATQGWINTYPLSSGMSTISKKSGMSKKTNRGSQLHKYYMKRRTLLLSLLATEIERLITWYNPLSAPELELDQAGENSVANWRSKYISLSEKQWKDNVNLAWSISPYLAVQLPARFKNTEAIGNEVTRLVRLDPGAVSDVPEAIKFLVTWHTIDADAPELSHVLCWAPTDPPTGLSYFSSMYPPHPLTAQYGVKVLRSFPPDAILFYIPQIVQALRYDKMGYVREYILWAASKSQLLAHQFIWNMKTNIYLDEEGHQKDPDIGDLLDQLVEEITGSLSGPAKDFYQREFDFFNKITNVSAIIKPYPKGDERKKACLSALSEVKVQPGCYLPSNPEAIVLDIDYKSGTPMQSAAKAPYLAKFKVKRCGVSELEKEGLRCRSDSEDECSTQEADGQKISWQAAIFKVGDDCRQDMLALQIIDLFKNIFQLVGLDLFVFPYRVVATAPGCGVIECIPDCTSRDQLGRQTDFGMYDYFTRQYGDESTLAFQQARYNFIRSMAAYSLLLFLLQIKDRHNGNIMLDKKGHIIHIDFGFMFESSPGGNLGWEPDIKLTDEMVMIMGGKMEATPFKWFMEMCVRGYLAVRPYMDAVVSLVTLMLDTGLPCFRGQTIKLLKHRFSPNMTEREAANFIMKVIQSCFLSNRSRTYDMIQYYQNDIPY
Experimental: as §4, §5, §6

[9] = Cell toxicity (CC50) in BK virus assay
PI3Kα = PI3Kα (Homo sapiens, UniProt P42336); details: cited from earlier work
PI3Kβ = PI3Kβ (Homo sapiens, UniProt P42338); details: at concentrations up to 20 μM; cited from earlier work
PI4K2α = PI4K2α (Homo sapiens, UniProt Q9BTU6); details: at concentrations up to 20 μM; cited from earlier work
PI3KC2γ = PI3KC2γ (Homo sapiens, UniProt O75747); details: cited from earlier work
Sequence of PI3KC2γ (O75747 whole entry, species assumed): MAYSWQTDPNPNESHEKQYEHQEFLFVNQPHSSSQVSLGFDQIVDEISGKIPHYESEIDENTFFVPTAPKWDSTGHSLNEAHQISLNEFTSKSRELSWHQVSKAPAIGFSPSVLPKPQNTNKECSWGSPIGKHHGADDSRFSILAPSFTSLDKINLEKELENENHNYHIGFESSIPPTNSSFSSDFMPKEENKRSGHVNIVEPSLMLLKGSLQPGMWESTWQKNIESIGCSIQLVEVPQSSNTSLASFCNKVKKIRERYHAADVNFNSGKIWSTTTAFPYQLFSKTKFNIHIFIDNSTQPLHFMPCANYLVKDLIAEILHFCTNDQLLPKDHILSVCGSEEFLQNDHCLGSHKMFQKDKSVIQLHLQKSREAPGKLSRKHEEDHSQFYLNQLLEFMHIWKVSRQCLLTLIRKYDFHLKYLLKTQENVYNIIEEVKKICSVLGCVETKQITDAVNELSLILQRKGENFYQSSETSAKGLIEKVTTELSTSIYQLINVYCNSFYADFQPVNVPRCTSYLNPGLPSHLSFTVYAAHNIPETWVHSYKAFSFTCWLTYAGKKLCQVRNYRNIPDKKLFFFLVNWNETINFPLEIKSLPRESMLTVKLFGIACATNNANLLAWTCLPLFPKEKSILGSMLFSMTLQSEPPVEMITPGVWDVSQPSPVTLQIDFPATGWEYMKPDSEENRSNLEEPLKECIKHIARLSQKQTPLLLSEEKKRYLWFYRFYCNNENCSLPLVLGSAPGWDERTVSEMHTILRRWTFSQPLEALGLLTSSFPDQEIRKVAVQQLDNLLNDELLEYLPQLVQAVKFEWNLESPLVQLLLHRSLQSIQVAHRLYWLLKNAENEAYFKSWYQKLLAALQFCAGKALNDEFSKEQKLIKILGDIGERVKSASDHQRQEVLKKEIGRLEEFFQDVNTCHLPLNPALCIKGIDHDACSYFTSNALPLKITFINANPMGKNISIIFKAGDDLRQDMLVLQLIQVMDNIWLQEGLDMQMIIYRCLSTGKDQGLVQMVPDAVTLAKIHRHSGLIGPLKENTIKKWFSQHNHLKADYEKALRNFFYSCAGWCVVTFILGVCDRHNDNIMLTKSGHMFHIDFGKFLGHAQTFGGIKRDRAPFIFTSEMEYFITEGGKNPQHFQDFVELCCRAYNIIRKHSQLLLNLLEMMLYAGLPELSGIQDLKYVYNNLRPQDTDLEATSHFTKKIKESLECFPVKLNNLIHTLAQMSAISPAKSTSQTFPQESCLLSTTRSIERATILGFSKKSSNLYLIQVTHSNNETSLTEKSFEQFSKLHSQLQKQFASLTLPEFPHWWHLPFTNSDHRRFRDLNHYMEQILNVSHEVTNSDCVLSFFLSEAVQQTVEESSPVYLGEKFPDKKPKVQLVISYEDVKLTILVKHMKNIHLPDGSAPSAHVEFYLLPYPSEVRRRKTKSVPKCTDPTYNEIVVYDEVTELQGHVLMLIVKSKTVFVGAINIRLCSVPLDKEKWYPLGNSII

PI4K2β = PI4K2β (Homo sapiens, UniProt Q8TCG2); details: at concentrations up to 20 μM; cited from earlier work
Sequence of PI4K2β (Q8TCG2 whole entry): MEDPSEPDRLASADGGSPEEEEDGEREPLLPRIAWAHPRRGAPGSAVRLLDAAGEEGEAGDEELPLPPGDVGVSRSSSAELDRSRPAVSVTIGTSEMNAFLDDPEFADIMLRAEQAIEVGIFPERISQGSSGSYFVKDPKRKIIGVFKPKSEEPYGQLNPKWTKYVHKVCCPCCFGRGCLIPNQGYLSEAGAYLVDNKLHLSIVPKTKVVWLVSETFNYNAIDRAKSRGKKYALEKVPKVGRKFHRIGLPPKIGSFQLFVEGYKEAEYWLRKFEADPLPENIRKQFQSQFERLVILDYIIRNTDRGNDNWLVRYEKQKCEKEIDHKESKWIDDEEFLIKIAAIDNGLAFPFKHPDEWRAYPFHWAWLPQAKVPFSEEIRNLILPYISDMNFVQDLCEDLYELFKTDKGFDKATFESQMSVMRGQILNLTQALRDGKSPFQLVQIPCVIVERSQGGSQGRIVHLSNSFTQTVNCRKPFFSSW

| Structure (SMILES) | EC50 [1] | survival (EV-71 virus) | metastases [2] | sizes of the primary tumors vs vehicle alone [2] | PI4P levels (lung cancer cell lines [3]) | IC50 (PI4KIIIbeta) | migration and invasion in Boyden chambers (lung cancer cell lines [4]) | cell proliferation in monolayer culture (lung cancer cell lines [5]) | EC50 [6] | colony formation in soft agar and on plastic (lung cancer cell lines [7]) | CC50 [8] | IC50 (PI4KIIIalpha) | CC50 [9] | IC50 (PI3Kα) | inhibition of PI3Kβ (PI3Kβ) | inhibition of PI4K2α (PI4K2α) | IC50 (PI3KC2γ) | inhibition of PI4K2β (PI4K2β) |
| --- | --- | --- | --- | --- | --- | --- | --- | --- | --- | --- | --- | --- | --- | --- | --- | --- | --- | --- |
| COc1ccc(-c2sc(NC(C)C3CCOCC3)nc2C)cc1S(=O)(=O)Nc1ccccc1Cl (stereo not shown) [Compound B] | 2100 nM | A dose response was observed in survival | No metastases were detectable | smaller | decreased PI4P levels in a dose-dependent fashion | < 100 nM | reduced | reduced cell proliferation in monolayer culture | 19 nM | reduced | 131000 nM | > 10000 nM | > 100000 nM |  |  |  |  |  |
| COc1ccc(-c2sc(NC(=O)C(C)(C)C)nc2C)cc1S(=O)(=O)Nc1ccc(O)cc1 [PI4KIIIbeta-IN-10] |  |  |  |  | decreased PI4P levels in a dose-dependent fashion |  | reduced | reduced cell proliferation in monolayer culture |  | reduced |  |  |  | ~10000 nM | < 20% | < 20% | ~1000 nM | < 20% |
